Measured values reported in EP0743064A1, “Leukotriene antagonists for use in the treatment or prevention of alzheimer's disease” (ELI LILLY AND COMPANY, priority 1995, dated 1996).
Counter-ions that a name gives are not always drawn.

Target: T1, binding of tritiated LTB4 to guinea pig lung membranes (Cavia porcellus, UniProt H0VYV8)
T1 construct: contained 25 mg of guinea pig lung membrane protein; from tissue; host or cells: guinea pig lung membranes
Test: biochemical
Description: The effectiveness of compounds of Formula I to inhibit the binding of tritiated LTB4 to guinea pig lung membranes was determined as follows.
[^3H]-LTB4 Radioligand Binding Assay in Guinea Pig Lung Membranes
The binding reaction was terminated by the addition of 1 mL ice cold wash buffer (25 mM Tris-HCl, pH 7.5) followed immediately by vacuum filtration over Whatman GF/C glass fiber filters using a Brandel (Gaithersburg, MD) 48 place harvester. The filters were washed three times with 1 mL of wash buffer. Retained radioactivity was determined by liquid scintillation counting at 50% counting efficiency using Ready Protein Plus cocktail (Beckman, Fullerton, CA). Nondisplaceable binding was determined in the presence of 1 mM LTB4 and was usually less than 10% of total binding. […] The data reported below is the mean -log Ki, otherwise known as the pKi, for n experiments.

T1 sequence (H0VYV8 1-348): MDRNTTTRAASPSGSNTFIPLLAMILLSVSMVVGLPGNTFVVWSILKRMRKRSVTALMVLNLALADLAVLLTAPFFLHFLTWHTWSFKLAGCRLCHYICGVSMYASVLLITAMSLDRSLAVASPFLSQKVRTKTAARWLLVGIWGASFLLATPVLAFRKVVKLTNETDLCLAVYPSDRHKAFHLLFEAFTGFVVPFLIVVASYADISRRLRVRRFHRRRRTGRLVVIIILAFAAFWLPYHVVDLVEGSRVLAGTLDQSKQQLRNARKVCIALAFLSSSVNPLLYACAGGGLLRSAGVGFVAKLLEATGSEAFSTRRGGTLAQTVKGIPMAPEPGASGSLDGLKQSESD

**Q.** With `CCc1cc(-c2ccc(F)cc2)c(O)cc1OCCCCCC(c1ccc(OCC(=O)N(C)C)cc1)c1nn[nH]n1` (centres unmarked) [Example 86, 1-(4-(Dimethylaminocarbonylmethoxy)phenyl)-1-(1H-tetrazol-5-yl)-6-(2-ethyl-4-(4-fluorophenyl)-5-hydroxyphenoxy)hexane] as the molecule, how does the Ki read?
**A.** 3.8 nM

**Q.** For `CCCc1c(OCCCOc2cc(O)c(-c3ccccc3)cc2CC)cccc1Oc1ccccc1C(=O)O` [Example 61, 2-[2-Propyl-3-[3-(2-ethyl-5-hydroxy-4-phenylphenoxy)-propoxy]phenoxy]benzoic acid sodium salt hemihydrate], which Ki is on record?
**A.** 14.1 nM

**Q.** For `CCc1cc(-c2ccc(F)cc2)c(O)cc1OCCCCCC(c1ccccc1)c1nn[nH]n1` (centres unmarked) [Example 84, 1-Phenyl-1-(1H-tetrazol-5-yl)-6-(2-ethyl-4-(4-fluorophenyl)-5-hydroxyphenoxy)hexane], which Ki is on record?
**A.** 6.31 nM

**Q.** For `CCc1cc(-c2cccc(N(C)C)c2)c(O)cc1OCCCCCC(C)(C)c1nn[nH]n1` [disodium salt], which Ki is on record?
**A.** 63.1 nM

**Q.** How did the Ki turn out when `CCc1cc(-c2ccc(C(F)(F)F)cc2)c(O)cc1OCCCCCC(C)(C)c1nn[nH]n1` [disodium salt] was run?
**A.** 66.1 nM
